Test results reported in publication PMC12481576, “Barbituric Acid Derivatives as Covalent Inhibitors of Leishmania braziliensis Dihydroorotate Dehydrogenase” (Journal of Medicinal Chemistry, 2025).
Where two headings read alike, the source gives them in different places.

Assays:
LbDHODH [1] = molecular target: T1, LbDHODH (Leishmania braziliensis, UniProt E9AI53); assay: biochemical; details: for IC50: LbDHODH
Experimental: To assess the ability of compounds 2a–2i to inhibit LbDHODH via covalent bond formation with Cys^131, we initially screened them at a concentration of 100 μM under two conditions: with and without a 4-h preincubation with the enzyme.
The experiments were performed in a 96-well microplate reader (SpectraMax Plus 384, Molecular Devices, USA), containing the […] of the buffer 60 mM DCIP, 50 mM Tris pH 8.15, 150 mM KCl, 0.1% Triton X-100, 50 μM DHO and 10 μM of LbDHODH at 165 nM. The reaction was monitored every 3 s at 610 nm over a period of 60 s, in triplicate, for the control and each concentration of the inhibitor. All assays were performed without incubation (0h) and with 4-h preincubation of the inhibitor with LbDHODH, using 5% DMSO (v/v) as control. […]. […] The resulting kobs values were plotted as a function of inhibitor concentration, and the data in the initial linear region was fit to determine the slope, which is kinact/KI. All regressions were performed with GraphPad Prism 9.

HsDHODH = molecular target: T2, HsDHODH (Homo sapiens, UniProt Q02127); assay: Selectivity assay: HsDHODH single-dose inhibition (DCIP reduction); assay type: biochemical
T2 construct: made in house
T2 sequence (Q02127 whole entry): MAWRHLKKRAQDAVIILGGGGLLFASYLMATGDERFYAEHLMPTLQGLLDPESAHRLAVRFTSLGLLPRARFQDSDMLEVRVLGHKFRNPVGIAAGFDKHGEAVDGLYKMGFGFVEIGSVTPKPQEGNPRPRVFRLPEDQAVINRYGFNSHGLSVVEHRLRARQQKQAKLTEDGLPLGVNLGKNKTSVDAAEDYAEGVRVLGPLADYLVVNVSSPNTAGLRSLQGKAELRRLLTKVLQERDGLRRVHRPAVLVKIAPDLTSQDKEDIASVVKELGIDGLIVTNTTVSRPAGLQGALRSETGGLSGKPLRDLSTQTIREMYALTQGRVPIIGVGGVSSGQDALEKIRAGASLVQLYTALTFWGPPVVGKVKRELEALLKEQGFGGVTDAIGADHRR
Experimental: […]. This finding highlights the potential of barbituric acid derivatives as selective inhibitors of LbDHODH.
Human DHODH expression and purification were conducted following a protocol previously established in our laboratory. The purification was carried out by affinity chromatography on a Ni-NTA Agarose column (Qiagen[…] Cat. No. 30210). […] The reaction was performed in triplicate, initiated by adding 195 μL of reaction buffer to 5 μL of HsDHODH protein solution for a final concentration of 20 nM enzyme. As a blank, 195 μL of reaction buffer was added to 5 μL of Buffer A. The reaction was monitored at 610 nm every 3 s over 60 s. As a control, 5 μL of enzyme was added to 195 μL of reaction medium without compound. Enzymatic velocity was calculated, and the percentage of relative enzymatic activity was determined relative to the control.

[2] = tested on: Leishmania braziliensis promastigotes; assay: Leishmanicidal activity, promastigote growth (SYBR Green, 72 h); assay type: cell-based, Leishmania (V.) braziliensis (MHOM/BR/1975/M2904); details: Leishmania braziliensis, L. braziliensis promastigotes, max 200 μM
Experimental: The cultures were adjusted to 4 × 10^6 parasites per mL, and 50 μL of each culture was added on a test plate with 384 wells (Corning, #CLS3658), along with the controls and compounds to be tested. Previously diluted compounds in DMSO were added to plates in decreasing concentrations, with a maximum concentration of 200 μM. Parasites were exposed to a final concentration of DMSO in various dilutes (final = 0.5%), and the culture medium was used as the control for the experiment. […] After adding the lysis buffer, the plates were incubated in the dark for 2 h with gentle shaking. The readings were done using a SpectraMax M3 reader (excitation at 485 nm and emission at 535 nm).

[3] = Cell viability / cytotoxicity assay (PrestoBlue, 72 h); assay type: cell-based; details: human; THP-1 cell line, 72 h, max 200 μM; read-out: CC50
Experimental: THP-1 cells (American Type Cell Collection, #TIB-202) were acquired in 2019 and stored frozen in liquid nitrogen. The cells were then maintained in RPMI 1640 (Thermo Fisher Scientific, #S31800–022) at 37 °C in a 5% CO2 atmosphere and routinely tested for Mycoplasma contamination by PCR using the primers 5′-[…] and 5′-[…]. To test the toxicity of compounds, 5000 cells were added to 96-well plates with a final volume of 80 μL centrifuged at 400g for 2 min and incubated with 150 ng/mL of phorbol myristate acetate (Merck, #P8139) for 48 h. The medium was replaced, and after 24 h, the compounds were added and tested at decreasing concentrations starting from 200 μM (10 μL/well). After 72 h of incubation, 10 μL of PrestoBlue Cell Viability Reagent (Thermo Fisher Scientific, #A13262) was added per well. After adding the reagent, the cells were incubated for 2 h at 37 °C in a 5% CO2 atmosphere, and fluorescence readings were performed using the SpectraMax M3 reader (excitation at 560 nm and emission at 590 nm).

LbDHODH [4] = molecular target: T1, LbDHODH; assay: Kinact/KI determination from LbDHODH progress curves (kobs vs inhibitor concentration); assay type: biochemical
From the text: The Kinact/Ki ratio is a key parameter for evaluating the potency of covalent inhibitors, as it quantitatively measures both their reactivity and affinity for the target enzyme. This parameter integrates two crucial aspects: KI, which reflects the inhibitor’s binding affinity, and Kinact, which describes the rate at which the covalent bond is formed. […] Therefore, this ratio is essential for ranking covalent inhibitors, optimizing their potency, and guiding structure-based drug design.
The experiments were performed in a 96-well microplate reader (SpectraMax Plus 384, Molecular Devices, USA), containing the […] of the buffer 60 mM DCIP, 50 mM Tris pH 8.15, 150 mM KCl, 0.1% Triton X-100, 50 μM DHO and 10 μM of LbDHODH at 165 nM. The reaction was monitored every 3 s at 610 nm over a period of 60 s, in triplicate, for the control and each concentration of the inhibitor. All assays were performed without incubation (0h) and with 4-h preincubation of the inhibitor with LbDHODH, using 5% DMSO (v/v) as control. […] To determine the IC50 values, the activity percentage data were fitted as a function of the concentration logarithm by nonlinear regression analysis (variable hillslope) using Prism 9.0 software (GraphPad Software, USA). […] The resulting kobs values were plotted as a function of inhibitor concentration, and the data in the initial linear region was fit to determine the slope, which is kinact/KI. All regressions were performed with GraphPad Prism 9.

[5] = read-out: Single dose (0h) % activity
[6] = read-out: Single dose (4h) % activity
[7] = 0 h, pH 8.15, read-out: LbDHODH Activity±SD (%)
[8] = 4 h, pH 8.15, read-out: LbDHODH Activity±SD (%)

T1 sequence (E9AI53 entry or part of it): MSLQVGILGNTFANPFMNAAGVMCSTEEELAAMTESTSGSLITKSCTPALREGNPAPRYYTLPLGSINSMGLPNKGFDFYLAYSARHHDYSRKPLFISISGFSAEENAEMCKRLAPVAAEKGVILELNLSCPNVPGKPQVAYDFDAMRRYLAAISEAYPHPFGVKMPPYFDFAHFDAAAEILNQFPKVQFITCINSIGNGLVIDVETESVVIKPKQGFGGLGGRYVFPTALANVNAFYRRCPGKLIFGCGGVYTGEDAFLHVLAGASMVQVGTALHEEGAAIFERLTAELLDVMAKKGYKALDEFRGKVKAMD

**Q.** With `O=C1NC(=O)C(Cc2ccc(-c3ccccc3)cc2)C(=O)N1` [3f, 5-([1,1′-Biphenyl]-4-ylmethyl)pyrimidine-2,4,6(1H,3H,5H)-trione] as the compound, how does the activity at 100 µM (LbDHODH [1]; LbDHODH remaining activity, compound 100 μM, 4-h preincubation, read-out: single dose (4 h) % activity) read?
**A.** 34 ± 6%

**Q.** And the “single dose (0 h) % activity” value (LbDHODH [1]; LbDHODH remaining activity, compound 100 μM, without preincubation, 100 µM)?
**A.** 82.6 ±0.2%

**Q.** What about the activity at 100 µM (LbDHODH [1]; LbDHODH remaining activity, compound 100 μM, without preincubation, read-out: single dose (0 h) % activity) of the same compound?
**A.** 83 ± 0.2%

**Q.** And the activity at 100 µM (HsDHODH; [5])?
**A.** 93 ± 11%

**Q.** What about the activity at 100 µM (HsDHODH; [6]) of the same compound?
**A.** 102 ± 10%

**Q.** And the EC50 [2]?
**A.** > 200 µM

**Q.** What about the CC50 at 72 h [3] of the same compound?
**A.** > 200 µM

**Q.** With `O=C1NC(=O)C(=Cc2cccc(O)c2)C(=O)N1` [2g, 5-(3-Hydroxybenzylidene)pyrimidine-2,4,6(1H,3H,5H)-trione] as the compound, how does the activity at 0.78125 µM (LbDHODH [1]; [7]) read?
**A.** 90 ± 9%

**Q.** And the activity at 1.5625 µM (LbDHODH [1]; [7])?
**A.** 106 ± 12%

**Q.** What about the activity at 3.125 µM (LbDHODH [1]; [7]) of the same compound?
**A.** 78 ± 13%

**Q.** What about the activity at 6.25 µM (LbDHODH [1]; [7]) of the same compound?
**A.** 106 ± 15%

**Q.** What about the activity at 12.5 µM (LbDHODH [1]; [7]) of the same compound?
**A.** 101 ± 10%

**Q.** What about the activity at 25 µM (LbDHODH [1]; [7]) of the same compound?
**A.** 82 ± 17%

**Q.** And the activity at 50 µM (LbDHODH [1]; [7])?
**A.** 63 ± 8%

**Q.** And the activity at 100 µM (LbDHODH [1]; [7])?
**A.** 45 ± 5%

**Q.** What about the activity at 200 µM (LbDHODH [1]; [7]) of the same compound?
**A.** 29 ± 3%

**Q.** And the activity at 400 µM (LbDHODH [1]; [7])?
**A.** 21 ± 2%

**Q.** And the activity at 0.78125 µM (LbDHODH [1]; [8])?
**A.** 88 ± 8%

**Q.** What about the activity at 1.5625 µM (LbDHODH [1]; [8]) of the same compound?
**A.** 72 ± 9%

**Q.** And the activity at 3.125 µM (LbDHODH [1]; [8])?
**A.** 77 ± 13%

**Q.** What about the activity at 6.25 µM (LbDHODH [1]; [8]) of the same compound?
**A.** 75 ± 10%

**Q.** What about the activity at 12.5 µM (LbDHODH [1]; [8]) of the same compound?
**A.** 58 ± 5%

**Q.** What about the activity at 25 µM (LbDHODH [1]; [8]) of the same compound?
**A.** 36 ± 4%

**Q.** And the activity at 50 µM (LbDHODH [1]; [8])?
**A.** 23 ± 3%

**Q.** And the activity at 100 µM (LbDHODH [1]; [8])?
**A.** 12.1 ± 2%

**Q.** What about the activity at 200 µM (LbDHODH [1]; [8]) of the same compound?
**A.** 7.1 ± 2%

**Q.** And the activity at 400 µM (LbDHODH [1]; [8])?
**A.** 5.4 ± 3%

**Q.** And the IC50 (LbDHODH [1]; IC50 0 h, without preincubation)?
**A.** 90 ± 10 µM

**Q.** What about the IC50 (LbDHODH [1]; IC50 4 h, 4-h preincubation) of the same compound?
**A.** 13 ± 1 µM

**Q.** What about the activity at 100 µM (LbDHODH [1]; [5]) of the same compound?
**A.** 22 ± 4%

**Q.** And the activity at 100 µM (LbDHODH [1]; [6])?
**A.** 8 ± 2%

**Q.** And the inhibition at 100 µM (LbDHODH [1]; read-out: enzyme inhibition)?
**A.** 90 to 93%

**Q.** And the Kobs (LbDHODH [4]; inhibitor 0.390625 µM)?
**A.** 0.003649 ± 0.003 s⁻¹

**Q.** And the Kobs (LbDHODH [4]; inhibitor 0.78125 µM)?
**A.** 0.003674 ± 0.003 s⁻¹

**Q.** And the Kobs (LbDHODH [4]; inhibitor 1.5625 µM)?
**A.** 0.00383 ± 0.002 s⁻¹

**Q.** What about the Kobs (LbDHODH [4]; inhibitor 3.125 µM) of the same compound?
**A.** 0.003621 ± 0.002 s⁻¹

**Q.** What about the Kobs (LbDHODH [4]; inhibitor 6.25 µM) of the same compound?
**A.** 0.003878 ± 0.002 s⁻¹

**Q.** What about the Kobs (LbDHODH [4]; inhibitor 12.5 µM) of the same compound?
**A.** 0.004049 ± 0.002 s⁻¹

**Q.** What about the Kobs (LbDHODH [4]; inhibitor 25 µM) of the same compound?
**A.** 0.004549 ± 0.002 s⁻¹

**Q.** What about the Kobs (LbDHODH [4]; inhibitor 50 µM) of the same compound?
**A.** 0.005211 ± 0.002 s⁻¹

**Q.** And the Kobs (LbDHODH [4]; inhibitor 100 µM)?
**A.** 0.007035 ± 0.001 s⁻¹

**Q.** And the Kobs (LbDHODH [4]; inhibitor 200 µM)?
**A.** 0.01421 ± 0.003 s⁻¹

**Q.** What about the Kobs (LbDHODH [4]; inhibitor 400 µM) of the same compound?
**A.** 0.01927 ± 0.006 s⁻¹

**Q.** What about the activity at 100 µM (HsDHODH; [5]) of the same compound?
**A.** 101 ± 11%

**Q.** What about the activity at 100 µM (HsDHODH; [6]) of the same compound?
**A.** 96 ± 9%

**Q.** What about the EC50 [2] of the same compound?
**A.** > 200 µM

**Q.** What about the CC50 at 72 h [3] of the same compound?
**A.** 76 ± 12 µM
